# Earlier results, collected in patent US20060160783A1, “Novel omeprazole forms and related methods” (Transform Pharmaceuticals, Inc., priority 2004, published 2006).
# How the values were obtained:
# [1] = according to the '188 Patent
# [2] = not given; remark: listed apart in the source
Structure (SMILES),hygroscopicity [1],"solubility in alkaline solutions (alkaline solutions, as a negatively charged ion)",solubility in water (water),stability in acidic aqueous solutions [2]
COc1ccc2[n-]c([S+]([O-])Cc3ncc(C)c(OC)c3C)nc2c1.[Na+] (centres unmarked) [Omeprazole sodium salt form B],less hygroscopic than omeprazole form A,–,–,–
"COc1ccc2[nH]c([S+]([O-])Cc3ncc(C)c(OC)c3C)nc2c1 (centres unmarked) [Omeprazole, 5-methoxy-2-[[(4-methoxy-3,5-dimethyl-2-pyridinyl)methyl]sulfinyl]-1H-benzimidazole]",–,very soluble,only slightly soluble,degrades very rapidly
COc1ccc2[n-]c([S+]([O-])Cc3ncc(C)c(OC)c3C)nc2c1.[Na+] (centres unmarked) [omeprazole sodium form A],very hygroscopic,–,–,–
